Patent publication US20100040621A1, “Novel polpeptide and use thereof” (TAKEDA PHARMACEUTICAL COMPANY LIMITED, priority 2005, published 2010)
No end group written: not given here.

How the values were obtained:
AVP secretion = AVP secretion in vivo after ICV administration (plasma AVP by RIA); details: rat; for AT-II induced AVP release: ICV preadministration, AT-II (1 nmol/10 μl) ICV 5 minutes after, plasma AVP; for AVP release induced by high salt administration: ICV, hypertonic saline (850 mM NaCl/10 μl) ICV 5 minutes after, plasma AVP 15 minutes after injection
Description: NERP-1, NERP-1-Gly, NERP-2 or NERP-2-Gly was ICV-administered to rats, followed by ICV administration of hypertonic saline (850 mM NaCl/10 μl) or angiotensin II (AT-II) (1 nmol/10 μl) 5 minutes after.
(§1) Blood samples were taken 15 minutes after the injection of NERPs. Plasma AVP was measured using an RIA kit (manufactured by Mitsubishi). Six pieces of PVN and SON were taken from the rat hypothalamus. Each nucleus was preincubated for an hour at 37° C. in medium 199 (25 mM HEPES buffer, pH 7.4, 2.5% fetal calf serum, 2.5% bovine serum and 1% penicillin-streptomycin) equilibrated under 95% O2 (n=4 wells/group). These nuclei were sequentially stimulated 3 times each for 5 minutes, using one of NERP-1 (10^−6 M), NERP-1 (10^−6 M)+AT-II (10^−6 M) and AT-II (10^−6 M). Stimulation periods were separated by 5-minute recovery periods. Similarly, these nuclei were stimulated using one of NERP-2 (10^−6 M), NERP-2 (10^−6 M)+AT-II (10^−6 M), NERP-1-Gly (10^−6 M) and NERP-2-Gly (10^−6 M). After they were thus stimulated, KCl of 6×10^−2 M was added to confirm depolarization-induced secretion. The two pieces from rat posterior pituitary were stimulated by NERPs and AT-II under the same conditions as described above. Aliquots of the medium were provided for RIA to measure AVP. The experiment was replicated 5 times.

PVN and SON = test: AVP secretion in vitro, static incubation of PVN and SON; format: cell-based; details: rat nuclei in vitro; for basal AVP secretion, static incubation of PVN and SON: peptide 10^−6 M; for AT-II-induced AVP secretion, static incubation of PVN and SON: peptide 10^−6 M + AT-II 10^−6 M
Description: as §1

posterior pituitary = test: AVP secretion in vitro, static incubation of posterior pituitary; format: cell-based; details: rat posterior pituitary in vitro, same conditions (10^−6 M)
Description: as §1

SON neurons = format: cell-based, rat; details: for GABAergic IPSC in the SON neurons: holding potential −20 mV
free-feeding rats = test: Feeding experiments in rats after ICV injection; format: in vivo, rat
Description: (§2) To assess feeding, NERP-1, NERP-2 or NERP-2-Gly (0.1-5 nmol/10 μl) was ICV-injected to rats (n=15 per group) at 09:30. Anti-orexin A IgG (0.25 μg/10 μl, Santa Cruz) and anti-orexin B IgG (0.25 μg/10 μl, Santa Cruz) or anti-MCH IgG (0.5 μg/10 μl, Phoenix) was ICV-injected at 09:00 to rats (n=12 per group). In all cases, IgG was injected […] before the NERP-2 administration. Food intake was monitored for an hour. In mouse experiments, NERP-2 (1 nmol/2 μl saline) or MCH (1 nmol/2 μl saline) was ICV-injected to orexin knockout mice (Cell, 92, 573-585 (1998)) and wild-type littermates (n=5 per group, 4 month-old male), then one-hour food intake was measured. Orexin knockout mice were prepared by targeted mutation in ES cells (Cell, 92, 573-585 (1998)).

[1] = test system: orexin knockout mice and wild-type littermates; test: One-hour food intake in orexin knockout mice and wild-type littermates after ICV injection; format: in vivo, mouse; details: ICV 1 nmol/2 μl saline
Description: as §2

[2] = test system: orexin knockout mice and wild-type mice; test: Locomotor stimulating activity in mice after ICV administration; format: in vivo, mouse; details: ICV 5 nmol/2 μl saline, counts summed 30 to 120 minutes after administration
Description: Movement of mice given an ICV administration of NERP-2 (5 nmol/2 μl saline) or vehicle was measured in sound- and light-proof cages equipped with an infrared detector (Muromachi Co. Ltd., Tokyo, Japan) as previously described according to the method described in Endocrinology, 144, 4729-4733 (2003). Locomotor activity counts were measured every 15 minutes and summed for the period of 30 minutes to 120 minutes after the administration.

| Substance | AT-II induced AVP release (AVP secretion) | AVP release induced by high salt administration (AVP secretion) | basal AVP secretion, static incubation of PVN and SON (PVN and SON) | AT-II-induced AVP secretion, static incubation of PVN and SON (PVN and SON) | AVP secretion from the posterior pituitary (posterior pituitary) | IPSCs induced by NERP-1 on application of hemoglobin (Hb) (SON neurons; Hb 10^−6 M, NO scavenger, added 5 minutes after NERP-1) | presynaptic GABAergic currents induced by NERP-1 in presence of tetrodotoxin (SON neurons; TTX 10^−6 M, Na+ channel blocker, added 5 minutes after NERP-1) | amplitude of IPSC (SON neurons; rat SON slice, patch-clamp) | frequency of IPSC (SON neurons; rat SON slice, patch-clamp) | GABAergic IPSC in the SON neurons (SON neurons; rat slice, patch-clamp) | EPSC in the SON neurons (SON neurons; rat slice, patch-clamp, holding potential −70 mV) | food intake during the light phase (free-feeding rats; free-feeding rats, ICV 0.1-5 nmol/10 μl, one-hour intake) | lowest effective dose for increased food intake (free-feeding rats; free-feeding rats, ICV, light phase) [nmol] | behavior compared to the control group (free-feeding rats; rats receiving ICV injection) | duration of orexigenic effect after the ICV injection (free-feeding rats; rats, ICV) | food intake in orexin knockout mice [1] | food intake in wild-type control mice [1] | total locomotor activity in the orexin knockout mice [2] | total locomotor activity in the wild-type mice [2] |
| --- | --- | --- | --- | --- | --- | --- | --- | --- | --- | --- | --- | --- | --- | --- | --- | --- | --- | --- | --- |
| NERP-1: VGF-derived peptide; human, rat and mouse sequences are SEQ ID NO: 4, 5 and 6; rat form an amidated 25-amino acid peptide (RPESALLGGSEAGERLLQQGLAQVEA; Neuroendocrine regulatory peptide-1; UniProt O15240 281-306, looked up) [VGF-derived peptide; rat form an amidated 25-amino acid peptide] | suppressed | dose-dependently suppressed | suppressed | suppressed | suppressed | not affected | remained unchanged | did not increase | increased | increased | did not increase | – | – | – | – | – | – | – | – |
| NERP-2: VGF-derived peptide; human, rat and mouse sequences are SEQ ID NO: 7, 8 and 9; rat form an amidated 38-amino acid peptide (QAEATRQAAAQEERLADLASDLLLQYLLQGGARQRGLG; also: rat form amidated, species of this chain not given here; UniProt O15240 310-347, looked up) [VGF-derived peptide; rat form an amidated 38-amino acid peptide] | inhibited | inhibited | suppressed | suppressed | – | – | – | – | – | increased | – | dose-dependently increased | 0.1 | remained alert and showed no unusual behavior | did not last longer than an hour | did not stimulate | stimulated | did not stimulate | stimulated |
